Assay results from patent US20230255943A1, “MMP-9 AND MMP-12 INHIBITION FOR TREATING SPINAL CORD INJURY OR RELATED INJURY TO NEUROLOGICAL TISSUE” (The University of Birmingham, priority 2020, published 2023).

Key:
[1] = system: mice with DC crush injury; test: Spinal cord water content (oedema) after DC crush injury in mice; format: in vivo, mouse; settings: 3 days after DC injury; doses and routes of Table 1; vs DC+vehicle
Experimental: For oral delivery of AZD1236, n=6 adult male C57BL6 mice/group (Charles River, Margate, UK) were randomly allocated to either: (1), Sham (control; partial laminectomy but no DC crush injury); (2), DC crush injury+vehicle (partial laminectomy followed by DC crush injury and injection of vehicle); (3), DC crush injury+100 mg/kg AZD1236; (4), DC crush injury+200 mg/kg AZD1236; and (5), DC crush injury+300 mg/kg AZD1236. For intrathecal (it) delivery of AZD1236, adult male C57BL6 mice (25-30 g) (Charles River, Margate, UK) were randomly allocated to either: (1), Sham (control; partial laminectomy but no DC crush injury); (2), DC crush injury+vehicle (partial laminectomy followed by DC crush injury and injection of vehicle); (3), DC crush injury+2.5 mg/kg AZD1236; (4), DC crush injury+5 mg/kg AZD1236; and (5), DC crush injury+10 mg/kg AZD1236. For intrathecal delivery an indwelling atlanto-occipital intrathecal catheter was inserted into the intrathecal space, as described previously (F. A. Oladosu, B. P. Ciszek, S. C. O'Buckley, A. G. Nackley, Novel intrathecal and subcutaneous catheter delivery systems in the mouse. J Neurosci Methods 264, 119-128 (2016)). Briefly, with mice in the sternal recumbency a small incision was made at the nape of the neck followed by detachment of the muscles on either side of the external occipital crest to expose the A-O membrane. The membrane was incised and a 6 cm Alzet mouse intrathecal catheter (Alzet, Cupertino, Calif., USA) and polyurethane segments were gently guided 2.5 cm into the intrathecal space. The catheter was secured using 4-0 silk sutures (Oasis Medical, IL) and the exposed end of the catheter was sealed off with a stainless-steel plug and affixed to the upper back. Animals were injected immediately with vehicle or AZD1236 followed by a 10 μl PBS catheter flush. Injections were repeated every twice daily for the first 3 days after injury and drugs and vehicle reagents were delivered over 1 min time period using a Hamilton microlitre syringe (Hamilton Co, USA). Where specified intact animals with no surgical procedures were also used. All lesions were administered under 5% isofluorane induced inhalation anaesthesia, with 1.51/min O2. Pre- and post-injury analgesia was also provided.
DC crush injury was administered bilaterally at the T8 vertebral level as described previously (S. Surey, M. Berry, A. Logan, R. Bicknell, Z. Ahmed, Differential cavitation, angiogenesis and wound-healing responses in injured mouse and rat spinal cords. Neuroscience 275, 62-80 (2014); M. L. Read, S. Mir, R. Spice, R. J. Seabright, E. L. Suggate, Z. Ahmed, M. Berry, A. Logan, Profiling RNA interference (RNAi)-mediated toxicity in neural cultures for effective short interfering RNA design. J Gene Med 11, 523-534 (2009)). Briefly, calibrated watchmaker's forceps were separated by 0.5 mm and inserted through the dorsal cord meninges to a depth of 0.45 mm in mice and separated by 1 mm and inserted through the dorsal cord meninges to a depth of 1.0 mm in rats, and the DC were crushed for 3 seconds. AZD1236 or vehicle was administered twice daily by oral gavage or intrathecally, either immediately for the first 3 days or 24 hours after injury and treating twice daily until day 4 (i.e. 3 days of AZD1236 dosing). All experiments were performed with n=6 mice/group and repeated on at least 2-3 independent occasions (total=12-18 animals/group/test).
The lesion site+3 mm either side for mice and the lesion site+5 mm either side for the rat DC model were dissected out and the water content of the spinal cord (as a measure of oedema) was determined at 3 days after DC and CC SCI, as described previously (S. Li, C. H. Tator, Effects of MK801 on evoked potentials, spinal cord blood flow and cord edema in acute spinal cord injury in rats. Spinal Cord 37, 820-832 (1999)). Spinal cords containing the lesion site were weighed on aluminium foil, dried at 105° C. for 24 hr, and re-weighed. […]

[2] = system: mice with DC crush injury; test: as above; format: in vivo, mouse; settings: IP, twice daily
[3] = system: J774A.1, RAW 264.7 and primary mouse peritoneal macrophages; test: Transwell migration assay of macrophages; format: cell-based; settings: J774A.1 and RAW 264.7, 3 h
Experimental: J774A.1 cells (#TIB-67; ATCC, Middlesex, UK) were cultured in DMEM supplemented with 10% FBS, 100 U/ml penicillin, 100 μg/ml streptomycin, and 0.25 μg amphotericin B. Cells were seeded in T75 tissue-culture flasks and maintained at 37° C. and 5% CO2. RAW 264.7 cells (#TIB-71; ATCC) were maintained in DMEM containing 10% FBS.
Resident peritoneal cells were harvested from adult C57BL/6 mice (6-8 weeks old) by injection of 10 ml of PBS using a 21G needle into the peritoneal cavity and harvesting the cell suspension, as described previously (Rosas M, Davies L C, Giles P J, Liao C T, Kharfan B, Stone T C, et aL. The transcription factor Gata6 links tissue macrophage phenotype and proliferative renewal. Science 2014; 344(6184): 645-8). Peritoneal cells were then centrifuged at 100×g for 10 min and the cell pellet resuspended in DMEM/F12 medium. Cell were incubated at 37° C., for 2 h and non-adherent cells were removed by gentle washing. Cells were expanded in DMEM/F12 medium containing 10% FBS. For migration assays, cells were grown in RPMI containing 0.02% BSA for 24 h to obtain quiescent cells prior to using them in Transwell migration assays as described below.
Migration assays were performed with J774A.1, RAW 264.7 and primary mouse peritoneal macrophages in 6.5 mm Transwell plates (ThermoFisher) with 8 μm pore inserts, as described previously (Green et al., 2012). Briefly, inserts were coated with rat tail type I collagen and 1×10^5 cells (J774A.1, RAW 264.7 or primary mouse macrophages) were resuspended in chemotaxis buffer (RMPI 1640 plus 0.02% BSA, (termed RPMI from herein)) and added to the upper chamber and incubated with migration medium, with or without known chemotactic factors MCP-1 (100 ng/ml) and PMA (100 nM), or AZD1236, GM6001, SD2590 and MMP-9 Inhibitor I (all used at 1, 10, 100, 1000 ng/ml) added to the lower chamber. Cells were allowed to migrate through the insert membrane for 3 h at 37° C., before washing inserts with PBS. Non-migrating cells remaining on the upper surface were removed with a cotton swab whilst the migrated cells on the insert were fixed, stained with Diff-Quick (#26096, Electron Microscopy Science, Hatfield, UK), and mounted on glass slides. Migration was measured visually by counting using a light microscope at 40× magnification. The mean number of cells in 10 random fields were calculated for each treatment by an experimenter masked to the treatment conditions. A migration index was calculated by dividing the number of cells that migrated in response to the chemokine by the number of cells that migrated randomly (RPMI medium) with a reference index>1, indicating chemotaxis.

[4] = system: SCI-induced oedema; test: Example 3: spinal cord water content with aquaporin-4 relocalisation inhibitors; settings: in vivo
Experimental: (§1) The lesion site+3 mm either side for mice and the lesion site+5 mm either side for the rat DC model were dissected out and the water content of the spinal cord (as a measure of oedema) was determined at 3 days after DC and CC SCI, as described previously (S. Li, C. H. Tator, Effects of MK801 on evoked potentials, spinal cord blood flow and cord edema in acute spinal cord injury in rats. Spinal Cord 37, 820-832 (1999)). Spinal cords containing the lesion site were weighed on aluminium foil, dried at 105° C. for 24 hr, and re-weighed. The percent water content was calculated as: water content (%)=[(wet weight-dry weight)/wet weight]×100%.
Using similar techniques to those described in Example 1, the water content in the spinal cord as a measure of injury-induced oedema was determined for various agents and aquaporin-4 inhibitors, namely TFP, PKAi, PKCi and TGN-020—see FIG. 21.

[5] = system: IL-1β, TNF-α and IL-6; test: Proinflammatory pain markers after CC SCI in mice; format: in vivo, mouse; settings: oral gavage immediately after injury
Experimental: CC SCI was administered at the T7-T8 vertebral level after exposure of T6-T9 by laminectomy. The aneurysm clip applicator was oriented in a bilateral direction and an aneurysm clip with a closing force of 24 g was applied extradurally for 60 s, as described previously (A. S. Rivlin, C. H. Tator, Effect of duration of acute spinal cord compression in a new acute cord injury model in the rat. Surg Neurol 10, 38-43 (1978):E. Esposito, I. Paterniti, E. Mazzon, T. Genovese, M. Galuppo, R. Meli, P. Bramanti, S. Cuzzocrea, MK801 attenuates secondary injury in a mouse experimental compression model of spinal cord trauma. BMC Neurosci 12, 31 (2011)).
The urinary bladders were manually emptied twice daily until bladder function was regained. Adult male C57BL6 mice (25-30 g) (Charles River, Margate, UK) were randomly allocated to either: (1), Sham (control; laminectomy but no CC SCI); (2), CC SCI+vehicle; (3), CC SCI+200 mg/kg AZD1236 (oral); (4), CC SCI+5 mg/kg AZD1236 (it). All experiments were performed with n=6 mice/group and repeated on 3 independent occasions (total=18 mice/group/test).
The lesion site+5 mm either side (DC and CC SCI, n=6 mice/rats/group, 2 independent repeats (total n=12 mice/rats/group)) was dissected and rapidly frozen in liquid N2 and stored at −80° C. until required. […] The levels of mRNA of MMP-9, MMP-12, IL-1β, TNF-α and IL-6 were determined using pre-validated mouse primer sequences from complimentary DNA prepared from extracted mRNA and qRT-PCR was performed using a LightCycler PCR machine (Roche, Burgess Hill, UK) (M. L. Read, S. Mir, R. Spice, R. J. Seabright, E. L. Suggate, Z. Ahmed, M. Berry, A. Logan, Profiling RNA interference (RNAi)-mediated toxicity in neural cultures for effective short interfering RNA design. J Gene Med 11, 523-534 (2009)). […] Fold changes were computed using the ΔΔCt method (M. L. Read, S. Mir, R. Spice, R. J. Seabright, E. L. Suggate, Z. Ahmed, M. Berry, A. Logan, Profiling RNA interference (RNAi)-mediated toxicity in neural cultures for effective short interfering RNA design. J Gene Med 11, 523-534 (2009).

[6] = system: rats with DC crush injury; test: Spinal cord water content after DC injury in rats; format: in vivo; settings: rat DC injury, oral, 3 days
Experimental: DC crush injury was administered bilaterally at the T8 vertebral level as described previously (S. Surey, M. Berry, A. Logan, R. Bicknell, Z. Ahmed, Differential cavitation, angiogenesis and wound-healing responses in injured mouse and rat spinal cords. Neuroscience 275, 62-80 (2014); M. L. Read, S. Mir, R. Spice, R. J. Seabright, E. L. Suggate, Z. Ahmed, M. Berry, A. Logan, Profiling RNA interference (RNAi)-mediated toxicity in neural cultures for effective short interfering RNA design. J Gene Med 11, 523-534 (2009)). […]
The efficacy of oral AZD3342 in the DC injury model in adult Sprague-Dawley rat was also assessed. […]
as §1, with “Spinal cords containing the lesion site were weighed on aluminium foil, dried at 105° C. for 24 hr, and re-weighed.” left out

[7] = system: IL-1β, TNF-α and IL-6; test: Proinflammatory pain cytokines after DC injury in rats; format: in vivo; settings: rat DC injury, oral
Experimental: The efficacy of oral AZD3342 in the DC injury model in adult Sprague-Dawley rat was also assessed. Animals were divided into 6 groups: (1), Sham (control); (2), DC crush injury+Vehicle; (3), DC crush injury+15 mg/kg AZD3342; (4), DC crush injury+75 mg/kg […]; (5), DC crush injury+375 mg/kg AZD3342; and (6), DC crush injury+Melatonin. Animals were dosed twice daily with oral AZD3342 or vehicle with the experimenters masked to the treatment conditions. These experiments were performed with n=6 rats/group and repeated on 2-3 independent occasions (total n=12-18 rats/group/test).
The lesion site+5 mm either side (DC and CC SCI, n=6 mice/rats/group, 2 independent repeats (total n=12 mice/rats/group)) was dissected and rapidly frozen in liquid N2 and stored at −80° C. until required. […] The levels of mRNA of MMP-9, MMP-12, IL-1β, TNF-α and IL-6 were determined using pre-validated mouse primer sequences from complimentary DNA prepared from extracted mRNA and qRT-PCR was performed using a LightCycler PCR machine (Roche, Burgess Hill, UK) (M. L. Read, S. Mir, R. Spice, R. J. Seabright, E. L. Suggate, Z. Ahmed, M. Berry, A. Logan, Profiling RNA interference (RNAi)-mediated toxicity in neural cultures for effective short interfering RNA design. J Gene Med 11, 523-534 (2009)). […]

[8] = system: mice with DC crush injury; test: CSF biomarkers of SCI (S100β, NSE, GFAP, pNF-H, NF-L); format: in vivo, mouse; settings: 3 d after injury

In the case of `COc1ccc(Cl)cc1C(=O)NCCc1ccc(S(=O)(=O)NC(=O)NC2CCCCC2)cc1` [Glibenclamide, reference compound], the “spinal cord water content, comparison of MMP inhibitors (FIG. 4)” value [1] is reported as “significantly reduced spinal cord water content”.

With `COC(=O)Nc1ccc2oc3cc(S(=O)(=O)N[C@@H](C(=O)O)C(C)C)ccc3c2c1` [MMP408] the “SCI-induced oedema with tool inhibitors singly or in combination (FIG. 3D)” value [2] was “suboptimal therapeutic benefits”.

With `CCCCCCCCCCCCCC(=O)O[C@@H]1[C@@H](C)[C@@]2(O)[C@@H](C=C(CO)C[C@]3(O)C(=O)C(C)=C[C@@H]23)[C@@H]2C(C)(C)[C@]12OC(C)=O` [PMA] the “macrophage migration (migration index, chemotaxis)” value [3] was “stimulated significant chemotaxis”.

In the case of `Nc1nc2ccc(OC(F)(F)F)cc2s1` [Riluzole, reference compound], the “spinal cord water content, comparison of MMP inhibitors (FIG. 4)” value [1] is reported as “significantly reduced spinal cord water content”.

With `CN1CCN(CCCN2c3ccccc3Sc3ccc(C(F)(F)F)cc32)CC1` [TFP, trifluoperazine] the “SCI-induced oedema, water content (FIG. 21)” value [4] was “suppress SCI-induced oedema”.

`NCC1(CC(=O)O)CCCCC1` [gabapentin] was tested, and the “proinflammatory pain markers after CC injury, comparison with pain medications (FIG. 7)” value [5] was “much less effective”.

For `COc1ccc2[nH]cc(CCNC(C)=O)c2c1` [melatonin, reference compound], the “SCI-induced edema (spinal cord water content)” value [6] was “marginal effect”, the “expression of proinflammatory pain cytokines” value [7] was “small effect” and the “spinal cord water content, comparison of MMP inhibitors (FIG. 4)” value [1] was “significantly reduced spinal cord water content”. The “levels of S100β, NSE, GFAP, pNF-H and NF-L in CSF” value [8] was “marginally reduced”.

In the case of `CC(C)C[C@H](CN)CC(=O)O` [pregabalin], the “proinflammatory pain markers after CC injury, comparison with pain medications (FIG. 7)” value [5] is reported as “much less effective”.

“MCP-1: known chemotactic factor, positive control in migration assay” was tested, and the “macrophage migration (migration index, chemotaxis)” value [3] was “stimulated significant chemotaxis”.
